The values that follow come from patent publication US10221171B2, “Oxathiazole thiazolium Hsp 70 inhibitors” (THE REGENTS OF THE UNIVERSITY OF CALIFORNIA, priority 2015, dated 2019).

Like-named read-outs stand apart in the source and are kept apart here.

In series [1] the test system is MCF-7. The series can be described thus: MTT cell viability assay, MCF-7. Type of series: cell-based. Conditions: for IC50: read-out: IC50/μM MCF-7; for EC50: Table 2.
For series [2], the system named is MDA-MB-231. The series can be described thus: MTT cell viability assay, MDA-MB-231. Type of series: cell-based. The conditions noted are these: Homo sapiens, MDA-MB-231, 72-hour incubation. For orientation: Tetrazolium assays rely on reduction of a dye to a coloured formazan, in cell work by metabolically active cells.
Series [3] relates to MEF (C57BL/6). The series can be described thus: MTT cell viability assay, MEF (C57BL/6). Type of series: cell-based. Conditions: for IC50 / EC50: Mus musculus; for EC50: Table 2; for SI MEF/MCF-7: ratio of EC50 MEF to EC50 MCF-7.
Series [4] deals with IMR-90. The series can be described thus: Cell viability, IMR-90. Type of series: cell-based. Conditions: for EC50: Homo sapiens, IMR-90, Table 2; for SI IMR-90/MCF-7: ratio of EC50 IMR-90 to EC50 MCF-7. As for the experimental part: Cells were then treated with compound at various concentrations in 0.2 mL media. After the 72-hour incubation period, cells were washed in PBS (3×100 μL), and 10 μL MTT reagent was added with 100 μL fresh media. Cells were then incubated for 4 hr in a humidified chamber at 37° C. with 5% CO2. Insoluble formazan crystals were solubilized by addition of 0.1 mL detergent solution (4 hr at room temp., dark). Resulting colored solutions were then quantified at an absorbance of 570 nm.

A short description of series [5]: Microsomal stability. Type of series: in vitro ADME.
A short description of series [6]: Pharmacokinetics in CD1 mice, single i.p. injection, plasma by HPLC. It counts as in vivo. On the procedure: A single injection of compound was delivered to CD1 mice by i.p. and the plasma collected at the indicated times. Compound levels were calculated by HPLC, using a standard curve.
Series [7] is described as follows: Tolerability in mice based on weight. Type of series: in vivo. The conditions noted are these: daily i.p. 5 mg/kg/day, male CD1 mice. As for the experimental part: Analogs were delivered daily to male CD1 mice by i.p. at 5 mg/kg/day. Five mice per group. Error bars represent SEM.
The nature of series [8]: Solubility. It counts as physicochemical.
The subject of series [9] is multiple myeloma cell lines. The series can be described thus: MTT cell viability in multiple myeloma cell lines. Type of series: cell-based. Conditions: cell viability after 48 hrs, percentage of solvent control (1% DMSO). An excerpt: Results are shown as a percentage of a solvent control (1% DMSO). Results are the average of experiments performed in triplicate. Error bars represent SEM.

The test system of series [10] is Hsp70 clients in MCF7 cells. The series can be described thus: Western blot of Hsp70 clients in MCF7 cells. Type of series: cell-based. Conditions: 24 hrs. As for the experimental part:
Cells were treated for 24 hrs with compound, lysed and Western blots performed.

Series [11] concerns Xenografts of MCF7 cells. The series can be described thus: Hsp70 client destabilization in MCF7 xenografts, western blot. Type of series: in vivo. The conditions noted are these: 5 mg/kg/day for three days, western blot of tumors. As for the experimental part:
Xenografts of MCF7 cells were treated by delivery of compound in saline 5 mg/kg/day dosed for three days, after which tumors were harvested for western blot. Results from three separate animals are shown.
Background: Immunoblotting shows a protein as a band on a membrane.

Setting [12] is: Homo sapiens, MCF7, MTT, 72-hour incubation.
Setting [13] is: MTT, 72-hour incubation, read-out: IC50/μM MEF (C57BL/6).

The term EC50 denotes the concentration giving half of the maximal effect. Low readings indicate a more potent agent, high ones a less potent agent. A word on the Tmax: it is the time from dosing to the highest level. `CCn1c(=O)/c(=C2\Sc3cc(Br)ccc3N2C)s/c1=C\c1scc[n+]1Cc1ccc(C(F)(F)F)o1.[Cl-]` [JG-294]: the IC50 in series [1] (Homo sapiens, MCF7, 72 h) was found to be 0.1 ± 0.01 µM; in series [2], 0.18 ± 0.01 µM; in series [3] (72 h, read-out: IC50/μM MEF (C57BL/6), MTT, 72-hour incubation) it was 3.5 ± 0.4 µM. The concentration giving a half-maximal response (EC50) stood at 0.1 ± 0.01 µM in series [1] (Homo sapiens, MCF7); 3.5 ± 0.4 µM in series [3]; 9.8 ± 2 µM in series [4]. This compound also came in with a Microsomal min in [5] of over 60 min. Further, the “AUC0-∞/nM × h” value in series [6] was found to be 2.429 µM·h. In addition, the Tmax in series [6] (mouse, ip) turned out to be 2 h. The half-life in series [6] (mouse, ip, read-out: t1/2/h (converted)) is 29.8 h. In addition, the “tolerated in mice, based on weight” value in [7] was “tolerated in mice”.
A word on the solubility: it is the concentration that dissolves in the medium under given conditions. A high value points to a readily soluble substance. In the case of `CCn1c(=O)/c(=C2\Sc3cc(SC)ccc3N2C)s/c1=C\c1scc[n+]1Cc1ccccc1OC(F)(F)F.[Cl-]` [JG-311], the values for the IC50 in [1] (setting [12]), in [2] and in series [3] (setting [13]) were 0.098 ± 0.009 µM, 0.14 ± 0.01 µM and 2 ± 0.1 µM, respectively. For the same compound, the EC50 came to 0.098 ± 0.009 µM in series [1] (Homo sapiens, MCF7); 2 ± 0.1 µM in series [3]; 3.5 ± 0.6 µM in series [4]. The “SI MEF/MCF-7” value in [3] was 20. In addition, the “SI IMR-90/MCF-7” value in [4] is on record as 35. The same compound returned a solubility in series [8] of 16 µM. Moreover, the Microsomal min in [5] was determined as 22 min.
As for `CCc1ccc2c(c1)S/C(=c1/s/c(=C\c3scc[n+]3Cc3ccccc3C(=O)OC)n(CC)c1=O)N2C.[Cl-]` [JG-345], the IC50 in [1] (Homo sapiens, MCF7, 72 h) amounted to 0.049 ± 0.003 µM; in [2], 0.046 ± 0.006 µM; in series [3] (setting [13]) it was 1 ± 0.1 µM. Moreover, the EC50 in series [1] (Homo sapiens, MCF7) was 0.049 ± 0.003 µM; in series [3] it was 1 ± 0.1 µM; in series [4], 3.2 ± 0.7 µM. In series [5], this compound yielded a Microsomal min of 25 min. Also, the t1/2/h in [6] was 11.4 h. In addition, the “anti-proliferative activity against multiple myeloma cell lines” value in series [9] is “anti-proliferative activity”. Also, the “tolerated in mice, based on weight” value in series [7] was “tolerated in mice”. In series [10], the “destabilization of Hsp70 clients (c-Raf and other clients)” value is “destabilize c-Raf and other clients”. The “destabilization of Hsp70 clients in vivo” value in [11] is “destabilized Hsp70 clients in vivo”.
In the case of `CCn1c(=O)/c(=C2\Sc3cc(Cl)ccc3N2C)s/c1=C\c1scc[n+]1Cc1ccc(Br)s1.[Cl-]` [JG-231, reference compound], the EC50 in [1] came to 0.12 ± 0.01 µM. The compound also registered a solubility in series [8] of 16 µM. Also, in [5], the Microsomal min is over 60 min. Moreover, the “tolerated in mice, based on weight” value in [7] is listed as “tolerated in mice”. The “destabilization of Hsp70 clients (c-Raf and other clients)” value in series [10] is “destabilize c-Raf and other clients”.
In the case of `CCn1c(=O)/c(=C2\Sc3cc(SC)ccc3N2C)s/c1=C\c1scc[n+]1Cc1ccccc1SC(F)(F)F.[Cl-]` [JG-356], the IC50 in [1] (setting [12]) was 0.089 ± 0.006 µM; in series [2], 0.09 ± 0.005 µM; in [3] (setting [13]), 1.9 ± 0.1 µM. For the same compound, the EC50 in series [1] (Homo sapiens, MCF7) worked out at 0.089 ± 0.006 µM; in series [3] it was 1.9 ± 0.1 µM; in [4], 1.5 ± 0.1 µM. Moreover, in [3], the “SI MEF/MCF-7” value is 21. In addition, the “SI IMR-90/MCF-7” value in series [4] turned out to be 16. This compound also yielded a solubility in [8] of 16 µM. In [5], this compound showed a Microsomal min of 23 min.
